One data set relates to α-glucoside hydrolase. The note with it: reported in Journal of Antibiotics 33, 1575 to 1576 (1980); cited from earlier work.
The nature of a further data set: toxicity (LD50) in rats. The note with it: rat, in vivo.
The target of data set [1] is T1, α-glucosidase (yeast, type I) (Saccharomyces cerevisiae, UniProt P53341).
T1 construct: purchased Sigma Chemical Co; host or cells: yeast
The data set can be described thus: glucosidase inhibitory activity, maltose as substrate. The class given is biochemical. The note with it: substrate 0.05 M maltose, pH 6.8, 37° C., read-out: IC50 (concentration of 50% inhibition). The protocol:
(§1) The inhibitory activities of valiolamine against α-glucosidase (yeast, type I, produced by Sigma Chemical Co., U.S.A.) as well as maltase and saccharase prepared from porcine intestinal mucosa (prepared in accordance with the procedure as described by B. Borgstrom and A. Dahlqvist in Acta Chem. Scand.; 12, 1997-2006, (1958)), when maltose and sucrose are used as a substrate, are determined by adding to 0.25 ml of a solution of an enzyme prepared by diluting suitably with 0.02 M phosphate buffer (pH 6.8) 0.5 ml of a solution of valiolamine to be tested in the same buffer and 0.25 ml of 0.05 M maltose or 0.05 M sucrose as the substrate in the same buffer allowing the mixture to react at 37° C. for 10 minutes, then adding 3 ml of Glucose B-Test Reagent (a glucose oxidase reagent for measurement of glucose, produced by Wako Pure Chemical Co., Japan), further warming the mixture at 37° C. for 20 minutes and measuring the absorbance of the reaction solution at 505 nm. […]

Data set [2] concerns the target T2, glucoamylase (Rhizopus mold) (Rhizopus oryzae, UniProt P07683).
T2 construct: purchased Sigma Chemical Co; host or cells: Rhizopus mold
T2 sequence (P07683 26-604): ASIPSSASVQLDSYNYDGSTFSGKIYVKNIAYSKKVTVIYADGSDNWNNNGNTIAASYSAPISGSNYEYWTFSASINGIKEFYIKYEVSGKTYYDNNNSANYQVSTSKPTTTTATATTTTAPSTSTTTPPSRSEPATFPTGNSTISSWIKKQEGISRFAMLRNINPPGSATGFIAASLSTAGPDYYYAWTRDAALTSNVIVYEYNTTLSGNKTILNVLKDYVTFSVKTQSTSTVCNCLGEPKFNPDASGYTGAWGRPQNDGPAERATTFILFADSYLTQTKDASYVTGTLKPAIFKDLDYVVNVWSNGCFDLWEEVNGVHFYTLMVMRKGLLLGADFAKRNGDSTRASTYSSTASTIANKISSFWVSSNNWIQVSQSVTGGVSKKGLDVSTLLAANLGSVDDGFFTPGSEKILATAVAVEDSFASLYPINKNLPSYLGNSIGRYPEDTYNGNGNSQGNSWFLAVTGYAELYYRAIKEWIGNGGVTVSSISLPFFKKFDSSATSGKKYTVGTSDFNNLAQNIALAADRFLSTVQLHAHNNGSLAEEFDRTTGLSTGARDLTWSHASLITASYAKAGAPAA
The data set can be described thus: glucoamylase inhibitory activity, p-nitrophenyl α-D-glucopyranoside as substrate. The class given is biochemical. The note with it: substrate 0.01 M p-nitrophenyl α-D-glucopyranoside, pH 6.8, 37° C., read-out: IC50 (concentration of 50% inhibition). Here is the method: (§2) The inhibitory activities against α-glucosidase (yeast, type I, produced by Sigman Chemical Co.) and glucoamylase (Rhizopus mold, produced by Sigma Chemical Co.) when p-nitrophenyl α-D-glucopyranoside is used as a substrate, are determined by adding to 0.25 ml of 0.02 M phosphate buffer (pH 6.8) containing 0.005 mg/ml of α-glucosidase 0.5 ml of a solution of valiolamine in the same buffer and 0.25 ml of a solution of 0.01 M p-nitrophenyl α-D-glucopyranoside in the same buffer, allowing the reaction to proceed at 37° C. for 15 minutes, then adding 3 ml of 0.1 M aqueous sodium carbonate solution to terminate the reaction, and measuring the absorbance of the reaction solution at 400 nm. The 50% inhibition concentration is calculated from the inhibition rates (%) which are determined with inhibitory substance samples of three to five different concentrations.

The target of data set [3] is maltase (porcine, intestinal mucosa). The data set can be described thus: maltase inhibitory activity, maltose as substrate. The class given is biochemical. The note with it: substrate 0.05 M maltose, pH 6.8, 37° C., read-out: IC50 (concentration of 50% inhibition). The protocol: as §1
Data set [4] concerns the target T1, α-glucosidase (yeast, type I). The data set can be described thus: glucosidase inhibitory activity, p-nitrophenyl α-D-glucopyranoside as substrate. Format: biochemical. The note with it: substrate 0.01 M p-nitrophenyl α-D-glucopyranoside, pH 6.8, 37° C., read-out: IC50 (concentration of 50% inhibition). The protocol:
as §2

These results are taken from patent US4446319A, “Aminocyclitols and their production” (Takeda Chemical Industries, Ltd., priority 1981, dated 1984).

T1 sequence (P53341 whole entry): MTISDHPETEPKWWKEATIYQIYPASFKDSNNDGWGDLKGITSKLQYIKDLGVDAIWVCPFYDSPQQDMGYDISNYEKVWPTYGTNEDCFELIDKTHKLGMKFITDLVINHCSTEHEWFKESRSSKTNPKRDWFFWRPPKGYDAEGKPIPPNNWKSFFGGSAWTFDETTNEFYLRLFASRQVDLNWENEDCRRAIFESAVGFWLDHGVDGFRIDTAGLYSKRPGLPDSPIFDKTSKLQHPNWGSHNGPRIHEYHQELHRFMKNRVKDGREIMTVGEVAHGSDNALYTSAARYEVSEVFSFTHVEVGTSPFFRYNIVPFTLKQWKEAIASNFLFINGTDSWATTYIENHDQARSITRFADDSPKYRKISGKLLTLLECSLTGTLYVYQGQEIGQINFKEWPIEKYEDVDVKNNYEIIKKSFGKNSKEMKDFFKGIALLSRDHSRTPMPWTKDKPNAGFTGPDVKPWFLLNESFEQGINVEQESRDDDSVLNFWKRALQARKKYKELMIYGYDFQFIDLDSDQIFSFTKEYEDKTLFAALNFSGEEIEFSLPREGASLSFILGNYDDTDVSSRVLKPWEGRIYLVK

With `N[C@H]1C=C(CO)[C@@H](O)[C@H](O)[C@H]1O` [valienamine], the “action on α-glucoside hydrolase” value with α-glucoside hydrolase is recorded as “possesses an action of suppressing the function of α-glucoside hydrolase”.
One may read the LD50 as the dose expected to kill half of the subjects tested. In “toxicity (LD50) in rats”, `N[C@H]1C[C@](O)(CO)[C@@H](O)[C@H](O)[C@H]1O` [valiolamine, 1L(1S)-(1(OH),2,4,5/1,3)-5-amino-1-hydroxymethyl-1,2,3,4-cyclohexanetetrol] yielded an LD50 of no less than 500 mg/kg. Further, the IC50 in data set [1] is 190 µM; in data set [2] it was 600 µM; in data set [3], 2200 nM; in data set [4] it was 1.1 mM.
